Assay results taken from patent US8512995B2, “DNA encoding polypeptide involved in biosynthesis of herboxidiene” (Eisai R&D Management Co., Ltd., priority 2008, dated 2013).
pIC50: −log10 of the molar value.

Test system: WiDr human colon cancer cells
Test: Proliferation inhibitory action on WiDr human colon cancer cells (CellTiter-Glo luminescence)
Format: cell-based
Details: 72 h, 3 days culture, CellTiter-Glo luciferase luminescence as indicator of living cells
Experimental: WiDr human colon cancer cells, which had been cultured in an RPMI1640 medium (manufactured by SIGMA) containing 10% fetal bovine serum, penicillin (100 units/mL) and streptomycin (100 μg/mL), were dispersed on a 96-well plate in an amount of 2×10^3 cells/90 μl/well. The cells were cultured in a CO2 incubator overnight. Thereafter, 10 μl of the aforementioned culture solution containing the compound HX354 or HX355 of 3-fold dilution series used in the aforementioned examples was added to the culture, and the mixture was then cultured. Three days later, 50 μl of CellTiter-Glo Luminescent Cell Viability Assay (Promega) was added to the culture, the mixture was then shaken for 2 minutes, and it was then left at rest for 15 minutes. Thereafter, luciferase luminescence was measured with a luminometer, and the measured luminescence was used as an indicator for the number of living cells
The concentrations (IC50 values) of HX354 and HX355, where the proliferation of the WiDr human colon cancer cells was inhibited by were obtained.

SMILES: CCC(OC)C(C)C1OC1(C)CC(C)/C=C/C=C(\C)C1OC(CC(=O)O)CCC1C (centres unmarked) [HX354]
- pIC50: 7.04

SMILES: CCC(O)C(C)C1OC1(C)CC(C)/C=C/C=C(\C)C1OC(CC(=O)O)CCC1C (centres unmarked) [HX355]
- pIC50: 6.77
